In one experiment the target is T1, S1P4 (Homo sapiens, UniProt O95977).
T1 construct: Tango fusion partner (protease site + GAL4-VP16 transcription factor); expressed in transfected cells; host or cells: Tango S1P4 (EDG6)-bla U-2 OS cells
T1 sequence (O95977 1-384): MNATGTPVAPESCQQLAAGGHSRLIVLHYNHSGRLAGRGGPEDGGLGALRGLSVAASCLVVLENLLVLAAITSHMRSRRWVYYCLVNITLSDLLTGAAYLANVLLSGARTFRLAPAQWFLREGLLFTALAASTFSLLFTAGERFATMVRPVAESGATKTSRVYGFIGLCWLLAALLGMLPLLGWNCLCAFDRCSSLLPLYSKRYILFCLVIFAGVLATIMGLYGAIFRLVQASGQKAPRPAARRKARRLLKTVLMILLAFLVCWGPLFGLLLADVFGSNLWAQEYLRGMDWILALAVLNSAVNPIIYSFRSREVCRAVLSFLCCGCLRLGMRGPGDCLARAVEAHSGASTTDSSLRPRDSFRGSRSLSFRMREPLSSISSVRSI
Description: S1P4 agonist test, Tango S1P4 (EDG6)-bla U-2 OS cells. The format is cell-based. Particulars: S1P4 TANGO U-2 OS cell line. The protocol:
Since AD2900 is a sphingolipid analogue with properties that resemble those of S1P, we intended to examine its ability to interact with the S1P receptors. To delineate whether AD2900 can function as an agonistic or antagonistic compound to any of the S1P receptors, we used a high-throughput screening cell-based assay, employing cell lines stably transfected with human S1P receptors 1, 2, 3, 4, or 5 [37]. In this experiment, a compound with an IC50 or EC50 value ≤10 μM for a certain S1P receptor is considered active as an antagonist or an agonist, respectively. The results illustrate that AD2900 acts as an antagonist to all S1P receptors (Table 1, Supplementary Figure 3). […] No agonist activation was evident.
The S1P1 agonist test and S1P2, S1P3, S1P4, and S1P5 agonist and antagonist tests were conducted as previously described using S1P1 CRE-bla CHO cells, S1P2 CRE-bla CHO cells, S1P3 NFAT-bla CHO cells, Tango™ S1P4 (EDG6)-bla U-2 OS cells, and Tango™ S1P5 ([…])-bla U-2 OS cells. The S1P1 antagonist assay was carried out according to the manufacturer’s instructions using a Tango™ S1P1 (EDG1)-bla U-2 OS Cell-Based Assay (Invitrogen, NY, USA).

The subject of the next experiment is CEM/C1. Description: XTT viability assay, CEM/C1. The format is cell-based, human. Particulars: 1-day treatment, compared with Jurkat (>10 μM). The protocol: Figure 1 AD2900 inhibits human lymphocyte proliferation in allogeneic activation (A, B) The levels of proliferative response of human peripheral blood lymphocytes (PBMCs) after 1-day pretreatment with different concentrations of AD2900, AD2750, YZ138, YZ158, and YZ297 (A) or AD2900, FTY720, and SEW2871 (B) were tested by human allogeneic mixed lymphocyte reaction (MLR) assay, followed by a [3H] thymidine incorporation analysis. (C) Apoptosis of AD2900-treated activated PBMCs was tested by AnnexinV-propidium iodide (PI) FACS analysis following 1-day AD2900 pretreatment and MLR. All the samples were compared to the untreated PBMC control. (D) IFN-γ secretion from activated PBMCs was tested by ELISA following a 1-day AD2900 pretreatment in MLR. On the 5th day of hMLR, supernatants were collected and assayed for the level of IFN-γ. (E) Jurkat cell viability after a 1-day treatment with different concentrations of AD2900, FTY720, and SEW2871 was tested by XTT viability assay. (F) H9, CEM/C1, and Molt4 cell viability after a 1-day treatment with different concentrations of AD2900 was tested by XTT viability assay. Graphs summarize the results of at least three independent experiments. Results of Student’s t-test: *(P < 0.05, two-tailed test), ** (P < 0.01, two-tailed test), *** (P < 0.001, two-tailed test), **** (P < 0.0001, two-tailed test). […]
For orientation: Tetrazolium dyes change colour on reduction, which living cells bring about.

The subject of a further experiment is murine splenocytes. Description: Mouse allogeneic MLR with murine splenocytes. It is filed as cell-based. Particulars: 1-day pretreatment, 3-day mice MLR; mean of up to, highest concentration. The protocol: Supplementary Figure 4: AD2900 inhibits mice splenocytes proliferation in allogeneic activation in vitro. In vivo- the […]
(A) The levels of proliferative response of mouse splenocytes after one day pretreatment with different concentrations of AD2900 were tested by mouse allogeneic mixed lymphocyte reaction (MLR) assay followed by a [3H] thymidine incorporation analysis. [3H] thymidine was incorporated for at least 16 hours at the 3rd day of the experiment. Significance is compared to untreated mice splenocytes. (B) C57BL/6 mice were orally administered AD2900 or FTY720. Leucocytes from blood, spleen and pLNs were collected and stained with TCR-β, CD62L and CD44 florescent antibodies and then analyzed by FACS analysis. The percent of CD62L+CD44+ (Tcm) like cells out of the total T cell population (TCR-β+) in blood, spleen and pLNs are shown. All the significances are compared to untreated healthy mice. Graphs summarize results of at least three independent experiments. Results of Student’s t test :*( P < 0.05, two-tailed test), ** (P < 0.01, two-tailed test), *** (P < 0.001, two-tailed test), **** (P < 0.0001, two-tailed test).
(also on this page, place not known: www.impactjournals.com/oncotarget/ Oncotarget, Materials 2017 Supplementary) […]

Bounds are passed on as bounds.

As to `CCCCCCCCCCCCCCCCNC(CO)(CO)CO` [AD2900], the EC50 (usually the midpoint of the concentration-response curve) at S1P4 was over 50 µM. Also, the “cell viability, CEM/C1” value with CEM/C1 is recorded as “reduced cell viability could be detected even at lower concentrations”. Moreover, the “inhibition of mice T-cell proliferation” value in the experiment on murine splenocytes was 73% ± 3%.
